Assay [1] has as its target T1, Sentrin-specific protease 6 (Homo sapiens, UniProt Q9GZR1).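 Further: Luminescence-based dose-response confirmatory assay of SENP6 inhibition, following up an ultra-high-throughput screen.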
T1 sequence (Q9GZR1 whole entry): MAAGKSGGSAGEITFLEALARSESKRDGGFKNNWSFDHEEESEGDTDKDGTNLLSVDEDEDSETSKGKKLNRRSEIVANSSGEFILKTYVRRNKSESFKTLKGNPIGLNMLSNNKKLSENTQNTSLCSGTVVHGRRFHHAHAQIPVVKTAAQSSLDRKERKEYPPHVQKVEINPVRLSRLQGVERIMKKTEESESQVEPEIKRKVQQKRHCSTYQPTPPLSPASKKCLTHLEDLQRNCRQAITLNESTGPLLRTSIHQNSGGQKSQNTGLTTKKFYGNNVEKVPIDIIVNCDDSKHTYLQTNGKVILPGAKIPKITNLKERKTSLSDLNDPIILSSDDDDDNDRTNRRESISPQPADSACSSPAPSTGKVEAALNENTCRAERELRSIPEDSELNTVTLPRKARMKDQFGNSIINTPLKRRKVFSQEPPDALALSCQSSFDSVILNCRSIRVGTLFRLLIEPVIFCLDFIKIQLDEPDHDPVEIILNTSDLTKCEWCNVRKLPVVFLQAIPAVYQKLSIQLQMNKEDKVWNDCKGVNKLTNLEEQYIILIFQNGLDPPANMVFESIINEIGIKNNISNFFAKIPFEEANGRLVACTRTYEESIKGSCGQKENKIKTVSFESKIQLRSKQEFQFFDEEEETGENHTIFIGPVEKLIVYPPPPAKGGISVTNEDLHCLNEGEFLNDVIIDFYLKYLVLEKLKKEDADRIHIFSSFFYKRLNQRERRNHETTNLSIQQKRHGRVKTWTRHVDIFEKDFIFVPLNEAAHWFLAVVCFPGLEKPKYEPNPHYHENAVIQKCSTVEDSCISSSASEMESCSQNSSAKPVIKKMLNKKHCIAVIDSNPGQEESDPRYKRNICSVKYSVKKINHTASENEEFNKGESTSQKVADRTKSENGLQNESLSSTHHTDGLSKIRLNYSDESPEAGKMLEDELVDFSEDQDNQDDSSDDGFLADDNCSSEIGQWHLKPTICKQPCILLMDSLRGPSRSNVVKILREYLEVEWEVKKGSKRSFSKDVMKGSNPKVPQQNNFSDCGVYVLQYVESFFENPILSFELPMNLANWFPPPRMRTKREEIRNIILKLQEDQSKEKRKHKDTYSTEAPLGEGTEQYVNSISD
The format is functional.

Assay [2] concerns the target T2, Sentrin-specific protease 8 (Homo sapiens, UniProt Q96LD8).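 Further: luminescence read-out of SENP8 inhibition, dose-response confirmation following an ultra-high-throughput screen.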
T2 sequence (Q96LD8 whole entry): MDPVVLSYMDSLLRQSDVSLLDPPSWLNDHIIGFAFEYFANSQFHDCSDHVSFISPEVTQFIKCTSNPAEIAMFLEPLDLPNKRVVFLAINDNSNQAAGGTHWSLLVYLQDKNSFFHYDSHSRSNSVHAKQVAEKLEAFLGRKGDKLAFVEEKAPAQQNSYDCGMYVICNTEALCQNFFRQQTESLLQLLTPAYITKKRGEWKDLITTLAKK
In kind it is functional.

For a further assay, the target named is T3, Caspase-3 (Homo sapiens, UniProt P42574).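 Further: Dose-response selectivity test against caspase-3 for candidate inhibitors of sentrin-specific proteases (SENPs).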
T3 sequence (P42574 whole entry): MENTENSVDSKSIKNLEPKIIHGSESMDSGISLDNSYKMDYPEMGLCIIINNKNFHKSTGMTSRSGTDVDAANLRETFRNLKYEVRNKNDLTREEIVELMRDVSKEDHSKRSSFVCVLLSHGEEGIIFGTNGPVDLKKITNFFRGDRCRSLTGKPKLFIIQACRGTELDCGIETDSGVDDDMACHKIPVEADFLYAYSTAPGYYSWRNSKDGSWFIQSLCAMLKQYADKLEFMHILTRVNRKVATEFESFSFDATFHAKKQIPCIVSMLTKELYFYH
In kind it is functional.

In assay [3] the target is T4, Sentrin-specific protease 7 (Homo sapiens, UniProt Q9BQF6).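 Further: Luminescence-based dose-response confirmation of ultra-high-throughput screening hits, measuring inhibition of SENP7.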
T4 sequence (Q9BQF6 whole entry): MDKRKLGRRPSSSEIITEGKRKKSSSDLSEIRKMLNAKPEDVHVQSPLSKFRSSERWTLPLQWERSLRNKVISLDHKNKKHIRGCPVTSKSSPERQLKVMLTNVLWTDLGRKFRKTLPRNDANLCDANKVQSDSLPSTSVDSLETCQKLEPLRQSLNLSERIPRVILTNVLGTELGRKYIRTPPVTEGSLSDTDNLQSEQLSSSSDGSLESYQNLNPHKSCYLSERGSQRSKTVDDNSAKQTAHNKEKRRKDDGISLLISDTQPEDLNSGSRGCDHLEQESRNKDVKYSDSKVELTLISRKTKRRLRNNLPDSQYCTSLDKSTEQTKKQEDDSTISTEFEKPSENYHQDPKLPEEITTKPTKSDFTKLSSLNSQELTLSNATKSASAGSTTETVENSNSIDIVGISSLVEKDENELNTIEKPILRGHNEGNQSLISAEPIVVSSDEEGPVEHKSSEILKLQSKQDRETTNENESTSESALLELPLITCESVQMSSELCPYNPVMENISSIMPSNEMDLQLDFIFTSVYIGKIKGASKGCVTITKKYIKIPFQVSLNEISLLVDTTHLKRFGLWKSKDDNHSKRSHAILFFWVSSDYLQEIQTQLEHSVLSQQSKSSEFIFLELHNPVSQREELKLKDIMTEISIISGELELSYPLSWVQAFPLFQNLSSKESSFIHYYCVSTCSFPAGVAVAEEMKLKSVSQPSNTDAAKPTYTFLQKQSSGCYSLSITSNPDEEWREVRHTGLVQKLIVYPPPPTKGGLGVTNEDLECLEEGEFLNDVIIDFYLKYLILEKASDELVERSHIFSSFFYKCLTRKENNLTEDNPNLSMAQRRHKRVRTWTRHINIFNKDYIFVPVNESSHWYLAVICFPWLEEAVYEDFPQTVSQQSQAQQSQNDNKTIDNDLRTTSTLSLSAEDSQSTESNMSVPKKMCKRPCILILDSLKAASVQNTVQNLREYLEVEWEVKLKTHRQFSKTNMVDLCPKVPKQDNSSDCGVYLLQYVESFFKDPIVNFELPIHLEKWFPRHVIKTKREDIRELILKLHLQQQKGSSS
The format is functional.

The target in the next assay is Prothrombin (Homo sapiens, UniProt P00734). Kind of assay: Thrombin 1536 HTS Dose Response Confirmation. [Related pubchem assays: 1046 (Thrombin 1536 HTS; hits were confirmed in this assay)]. The format is functional.
The nature of assay [4]: A Cell Based Secondary Assay To Explore Cytotoxicity of Compounds that Sensitize Mycobacterium Tuberculosis to Beta-Lactam Antibiotics. In kind it is functional.
Assay [5] addresses Peroxisome proliferator-activated receptor gamma/Nuclear receptor coactivator 2 (Homo sapiens, UniProt P37231). The format is functional.
In assay [6] the target is Peroxisome proliferator-activated receptor gamma/Nuclear receptor coactivator 1 (Homo sapiens, UniProt P37231). In kind it is functional.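 Further: agonist potency as compounds enhance coactivator SRC-1 recruitment to PPARgamma.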
Peroxisome proliferator-activated receptor gamma/Nuclear receptor coactivator 1, sequence (P37231 whole entry): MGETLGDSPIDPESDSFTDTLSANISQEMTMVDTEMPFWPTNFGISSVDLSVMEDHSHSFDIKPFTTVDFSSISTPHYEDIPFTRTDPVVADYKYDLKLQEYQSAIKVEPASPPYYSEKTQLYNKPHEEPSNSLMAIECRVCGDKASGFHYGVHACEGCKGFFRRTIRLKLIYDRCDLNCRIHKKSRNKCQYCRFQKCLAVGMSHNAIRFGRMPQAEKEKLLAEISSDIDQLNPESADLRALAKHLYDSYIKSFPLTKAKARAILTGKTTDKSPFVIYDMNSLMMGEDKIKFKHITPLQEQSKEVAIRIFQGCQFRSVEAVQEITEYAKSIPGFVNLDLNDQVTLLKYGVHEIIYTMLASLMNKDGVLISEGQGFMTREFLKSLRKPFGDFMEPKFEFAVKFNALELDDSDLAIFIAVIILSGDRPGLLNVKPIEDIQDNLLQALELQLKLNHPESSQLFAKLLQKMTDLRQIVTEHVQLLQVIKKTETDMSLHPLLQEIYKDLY
Peroxisome proliferator-activated receptor gamma/Nuclear receptor coactivator 1, sequence (Q15788 whole entry, further chain): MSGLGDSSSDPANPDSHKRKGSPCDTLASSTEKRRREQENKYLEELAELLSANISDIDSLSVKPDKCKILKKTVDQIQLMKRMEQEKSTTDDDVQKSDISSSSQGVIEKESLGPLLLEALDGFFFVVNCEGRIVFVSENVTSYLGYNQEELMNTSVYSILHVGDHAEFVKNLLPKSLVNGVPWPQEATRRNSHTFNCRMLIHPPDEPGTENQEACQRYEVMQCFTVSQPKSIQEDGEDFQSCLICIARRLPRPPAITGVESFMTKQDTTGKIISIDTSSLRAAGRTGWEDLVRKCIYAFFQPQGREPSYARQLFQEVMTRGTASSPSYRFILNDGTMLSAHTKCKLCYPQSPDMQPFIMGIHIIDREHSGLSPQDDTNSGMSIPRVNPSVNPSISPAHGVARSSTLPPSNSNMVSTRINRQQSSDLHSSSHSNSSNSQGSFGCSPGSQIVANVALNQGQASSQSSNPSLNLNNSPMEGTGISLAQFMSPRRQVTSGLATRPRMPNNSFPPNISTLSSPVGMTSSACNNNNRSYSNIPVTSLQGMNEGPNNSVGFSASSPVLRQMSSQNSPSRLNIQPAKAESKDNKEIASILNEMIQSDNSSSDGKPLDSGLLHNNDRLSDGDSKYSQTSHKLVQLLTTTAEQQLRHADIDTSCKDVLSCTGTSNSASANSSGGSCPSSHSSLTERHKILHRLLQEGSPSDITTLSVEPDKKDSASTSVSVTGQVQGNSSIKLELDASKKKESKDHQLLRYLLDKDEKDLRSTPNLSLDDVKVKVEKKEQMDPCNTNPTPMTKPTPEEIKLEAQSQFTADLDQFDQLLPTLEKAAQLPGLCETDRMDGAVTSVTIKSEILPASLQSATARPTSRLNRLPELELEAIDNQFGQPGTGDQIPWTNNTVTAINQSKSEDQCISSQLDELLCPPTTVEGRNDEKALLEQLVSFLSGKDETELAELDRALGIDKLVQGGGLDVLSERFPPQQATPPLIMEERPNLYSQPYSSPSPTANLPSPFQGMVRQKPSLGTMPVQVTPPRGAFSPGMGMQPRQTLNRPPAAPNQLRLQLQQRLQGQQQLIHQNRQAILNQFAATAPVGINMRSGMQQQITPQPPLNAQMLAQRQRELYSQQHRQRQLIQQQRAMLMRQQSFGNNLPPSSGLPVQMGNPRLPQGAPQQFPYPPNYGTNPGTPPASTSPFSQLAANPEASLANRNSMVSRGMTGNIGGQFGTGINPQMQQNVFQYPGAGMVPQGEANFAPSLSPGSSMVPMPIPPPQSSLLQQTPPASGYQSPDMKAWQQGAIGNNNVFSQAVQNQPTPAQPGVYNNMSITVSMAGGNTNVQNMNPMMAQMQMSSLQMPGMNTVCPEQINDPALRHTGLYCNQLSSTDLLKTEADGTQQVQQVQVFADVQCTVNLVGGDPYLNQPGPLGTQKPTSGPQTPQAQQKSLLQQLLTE
For assay [7], the target named is Peroxisome proliferator-activated receptor gamma/Nuclear receptor coactivator 3 (Homo sapiens, UniProt P37231). In kind it is functional.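 Further: agonist potency for raising coactivator recruitment to the receptor.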
In assay [8] the target is T5, Mannose-6-phosphate isomerase (Homo sapiens, UniProt P34949).
T5 sequence (P34949 whole entry): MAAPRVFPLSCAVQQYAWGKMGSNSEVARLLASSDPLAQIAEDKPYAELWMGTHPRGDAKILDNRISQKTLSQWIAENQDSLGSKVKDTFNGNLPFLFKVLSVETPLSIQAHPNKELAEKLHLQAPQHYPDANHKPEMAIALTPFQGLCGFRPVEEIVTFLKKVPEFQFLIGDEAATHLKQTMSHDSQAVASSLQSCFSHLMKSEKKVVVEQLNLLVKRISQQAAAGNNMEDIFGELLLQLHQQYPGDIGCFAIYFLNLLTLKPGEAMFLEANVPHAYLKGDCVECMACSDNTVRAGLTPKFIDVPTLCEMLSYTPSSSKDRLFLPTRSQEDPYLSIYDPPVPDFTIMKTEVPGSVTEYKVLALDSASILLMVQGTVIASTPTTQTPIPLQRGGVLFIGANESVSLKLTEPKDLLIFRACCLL
Briefly: MPI enzyme activity inhibition – biochemical, fluorescence intensity, coupled assay, primary screen (AID 1209).

The target in another assay is Ion channel NompC (Danio rerio, UniProt Q7T1G6). Briefly: Fluorescence counterscreen assay for TRPML3 agonists: dose response cell-based high-throughput screening assay to identify agonists of the transient receptor potential channel N1 (TRPN1). [Related pubchem assays: 1526, 1424, 1448 ]. The format is functional. For orientation: Counterscreens check selectivity or assay interference.
Ion channel NompC, sequence (Q7T1G6 whole entry): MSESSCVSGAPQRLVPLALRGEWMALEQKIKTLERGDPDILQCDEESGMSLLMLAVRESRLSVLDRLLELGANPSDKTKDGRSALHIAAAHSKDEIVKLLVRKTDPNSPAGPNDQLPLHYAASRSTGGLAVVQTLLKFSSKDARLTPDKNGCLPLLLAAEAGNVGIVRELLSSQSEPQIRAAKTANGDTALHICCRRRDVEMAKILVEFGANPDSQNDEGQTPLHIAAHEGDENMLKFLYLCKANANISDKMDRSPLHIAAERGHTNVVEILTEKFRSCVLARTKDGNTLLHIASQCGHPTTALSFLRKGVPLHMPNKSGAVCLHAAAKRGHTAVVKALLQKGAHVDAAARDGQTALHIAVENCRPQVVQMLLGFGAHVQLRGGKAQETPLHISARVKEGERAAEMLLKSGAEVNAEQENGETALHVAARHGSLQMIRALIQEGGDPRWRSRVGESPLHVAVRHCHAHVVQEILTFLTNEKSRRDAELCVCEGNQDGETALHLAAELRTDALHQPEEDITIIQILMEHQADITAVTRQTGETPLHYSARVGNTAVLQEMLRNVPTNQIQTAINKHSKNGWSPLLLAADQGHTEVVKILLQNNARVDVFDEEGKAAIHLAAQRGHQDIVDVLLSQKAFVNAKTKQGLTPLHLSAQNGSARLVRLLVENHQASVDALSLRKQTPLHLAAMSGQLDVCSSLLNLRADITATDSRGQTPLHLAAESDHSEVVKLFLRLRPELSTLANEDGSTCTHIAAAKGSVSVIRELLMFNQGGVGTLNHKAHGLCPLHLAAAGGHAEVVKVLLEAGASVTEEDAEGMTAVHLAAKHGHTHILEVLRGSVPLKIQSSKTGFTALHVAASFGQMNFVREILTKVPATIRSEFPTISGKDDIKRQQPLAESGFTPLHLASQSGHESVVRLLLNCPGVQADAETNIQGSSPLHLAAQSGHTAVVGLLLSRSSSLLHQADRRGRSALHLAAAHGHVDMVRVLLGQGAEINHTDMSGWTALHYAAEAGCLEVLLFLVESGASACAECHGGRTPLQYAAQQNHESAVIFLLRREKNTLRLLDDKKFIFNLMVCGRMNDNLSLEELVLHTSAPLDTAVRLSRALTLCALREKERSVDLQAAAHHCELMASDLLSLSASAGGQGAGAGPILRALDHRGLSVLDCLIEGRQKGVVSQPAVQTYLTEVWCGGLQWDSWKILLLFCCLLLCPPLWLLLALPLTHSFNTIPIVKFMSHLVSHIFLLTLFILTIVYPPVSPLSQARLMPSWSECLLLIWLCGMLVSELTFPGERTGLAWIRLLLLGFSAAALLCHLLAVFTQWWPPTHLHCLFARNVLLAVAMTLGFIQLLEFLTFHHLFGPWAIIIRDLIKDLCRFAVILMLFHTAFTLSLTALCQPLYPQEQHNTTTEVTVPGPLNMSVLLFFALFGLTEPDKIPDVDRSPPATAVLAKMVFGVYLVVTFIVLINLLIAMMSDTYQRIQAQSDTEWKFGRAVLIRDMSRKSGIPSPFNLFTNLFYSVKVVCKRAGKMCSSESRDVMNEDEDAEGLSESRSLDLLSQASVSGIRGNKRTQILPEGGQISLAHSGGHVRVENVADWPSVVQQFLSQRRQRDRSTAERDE

The target in the next assay is T6, Mucolipin-3 (Homo sapiens, UniProt Q8TDD5).
T6 sequence (Q8TDD5 whole entry): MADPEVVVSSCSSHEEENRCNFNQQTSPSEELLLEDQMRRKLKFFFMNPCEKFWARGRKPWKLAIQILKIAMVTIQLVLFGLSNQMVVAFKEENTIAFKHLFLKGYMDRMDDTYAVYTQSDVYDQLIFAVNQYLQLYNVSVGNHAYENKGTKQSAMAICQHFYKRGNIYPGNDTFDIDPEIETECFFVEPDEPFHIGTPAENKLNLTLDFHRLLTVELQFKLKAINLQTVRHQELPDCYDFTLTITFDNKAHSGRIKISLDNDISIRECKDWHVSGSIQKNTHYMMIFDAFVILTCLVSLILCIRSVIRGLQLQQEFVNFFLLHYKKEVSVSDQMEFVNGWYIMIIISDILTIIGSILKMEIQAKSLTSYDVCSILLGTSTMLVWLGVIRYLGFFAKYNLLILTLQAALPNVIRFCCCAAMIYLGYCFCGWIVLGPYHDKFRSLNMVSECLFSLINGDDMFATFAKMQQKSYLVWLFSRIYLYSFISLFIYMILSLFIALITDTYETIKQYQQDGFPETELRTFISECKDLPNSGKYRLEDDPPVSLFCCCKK
Kind of assay: Dose response cell-based high-throughput screening assay for agonists of the transient receptor potential channel ML3 (TRPML3). [Related pubchem assays: 1526, 1424, 1448 ]. In kind it is functional.

Assay [9] in a line: alpha-synuclein stem-loop luciferase translation blockers – H4 neuroglioma cells, luminescence, confirmation (AID 1988). In kind it is functional, cell-based.
A short description of assay [10]: luciferase reporter signal suppression in cells – H4 neuroglioma cells, luminescence, dose response (AID 1990). In kind it is functional, cell-based.
The next assay is described as follows: cells. In kind it is functional, cell-based.
Assay [11] is described as follows: luciferase reporter signal reduction – luminescence, H4-C neuroglioblastoma cells, dose response (AID 2458).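 Further: H4 neuroglioblastoma cells stably carrying a luciferase reporter gene fusion.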 The format is functional, cell-based.
Assay [12] in a line: alpha-synuclein stem-loop translation blockers – luminescence, H4 neuroglioblastoma cells, dose confirmation, confirmation (AID 2454).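 Further: H4 neuroglioblastoma cells carrying an alpha-synuclein 5'UTR luciferase reporter; potency for inhibition of the luciferase signal.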 The format is functional, cell-based.
The nature of assay [13]: Luminescence Cell-Based Dose Response HTS to Identify Inhibitors of 5'UTR Stem-Loop Driven Prion Protein mRNA Translation in H4 Neuroglioblastoma Cells. [Related pubchem assays: 1827 (Project Summary), 1813 (Primary HTS)]. In kind it is functional.

Activity calls are given as the source filed them. A value given as a limit tells only on which side of the number the result lay.

One may read the IC50 as the concentration that inhibits the measured activity by half. In general, CC50 refers to the concentration at which the toxic effect on the cells reaches its halfway point. Usually EC50 stands for the concentration that produces a half-maximal response.

`Cc1cccc(C(=O)Nc2sc(C)c(-c3ccccc3)c2C#N)c1`: the IC50 was > 100 µM (inactive) in assay [1]; > 100 µM (inactive) in [2]; 38.5 µM (active) on Caspase-3; 7.15 µM (active) in [3]; > 50 µM (not active) against Prothrombin.

For `O=c1[nH]c(/C=C/c2cccc(Br)c2)nc2ccccc12`, in [4], the CC50 is 33.4 µM (active).

For `N#Cc1ccc(/C=N/NC(=N)N)cc1`, the EC50 in [5], in assay [6] and in assay [7] was > 79.4 µM (not active) in each case.

Take `Cc1ccc(N2C(=O)CC(Sc3nc[nH]n3)C2=O)cc1C` (stereo not given): the IC50 in [8] is > 50 µM (not active).

Turning to `O=C1COc2ccc(C(=O)/C=C/c3ccccc3)cc2N1`, in assay [4], the CC50 is 21.5 µM (active).

Turning to `COc1ccc(C(=O)/N=c2\sc3ccccc3n2C)cc1OC`, the EC50 in [5], in assay [6] and in assay [7] was > 79.4 µM (not active) throughout.

`COc1cccc(/C=N/NC(=O)c2csc(-n3nc(C)cc3C(F)(F)F)n2)c1`: the EC50 in [5], in assay [6] and in assay [7] was > 79.4 µM (not active) each time.

In the case of `N#Cc1ccccc1/C=N/Nc1nc(-c2ccccc2)c2cc(Br)ccc2n1`, the CC50 in [4] is > 40 µM (active).

`CCC(Oc1cc(Cl)ccc1Cl)C(=O)NN1C(=O)C2C3CCC(C3=C(C)C)C2C1=O` (stereo not given): the 50% effective concentration (EC50) on Ion channel NompC is 23.7 µM (not active); on Mucolipin-3, 3.99 µM (active).

On to `CN(C)S(=O)(=O)N1CCN(c2cc(Cl)ccc2Cl)CC1`, for which the EC50 is on record as > 29.9 µM (not active) on Ion channel NompC and 26.5 µM (not active) on Mucolipin-3.

For `CCN(C1CCCCC1)S(=O)(=O)c1cc(C)ccc1OC`, the figures for the EC50 at Ion channel NompC and on Mucolipin-3 were > 29.9 µM (not active) and 3.39 µM (active), respectively.

Take `CCCC(=O)Oc1c(S(=O)(=O)c2ccc(C)cc2)c(C)nn1C(C)(C)C`: the EC50 on Ion channel NompC was > 29.9 µM (not active); at Mucolipin-3, 2.31 µM (active).

As to `CCC(C)Nc1nc(N)c([N+](=O)[O-])c(NC2CCCCC2)n1` (stereo not given), the EC50 in [9] is 9.77 µM (active); in [10], 13.2 µM (active); in “cells” it was > 12 µM (not active); in assay [11] it was > 12 µM (not active); in assay [12], > 12 µM (not active); in [13] it was < 0.1 µM (active).

In the case of `CSc1ccccc1NC(=O)Cn1c(-c2cscn2)nc2ccccc21`, the EC50 in assay [5], in assay [6] and in [7] was > 79.4 µM (not active) throughout.

The record behind these values is ChEMBL document CHEMBL1201862, “PubChem BioAssay data set” (2004).
